This note sets out measurements from ChEMBL document CHEMBL2046379, “CCLab--a multi-objective genetic algorithm based combinatorial library design software and an application for histone deacetylase inhibitor design” (Bioorg Med Chem Lett, 2012).

A word on the IC50: it is the midpoint of a concentration-inhibition curve.

Assay [1] deals with T1, Protein deacetylase HDAC6 (Homo sapiens, UniProt Q9UBN7).
T1 sequence (Q9UBN7 whole entry): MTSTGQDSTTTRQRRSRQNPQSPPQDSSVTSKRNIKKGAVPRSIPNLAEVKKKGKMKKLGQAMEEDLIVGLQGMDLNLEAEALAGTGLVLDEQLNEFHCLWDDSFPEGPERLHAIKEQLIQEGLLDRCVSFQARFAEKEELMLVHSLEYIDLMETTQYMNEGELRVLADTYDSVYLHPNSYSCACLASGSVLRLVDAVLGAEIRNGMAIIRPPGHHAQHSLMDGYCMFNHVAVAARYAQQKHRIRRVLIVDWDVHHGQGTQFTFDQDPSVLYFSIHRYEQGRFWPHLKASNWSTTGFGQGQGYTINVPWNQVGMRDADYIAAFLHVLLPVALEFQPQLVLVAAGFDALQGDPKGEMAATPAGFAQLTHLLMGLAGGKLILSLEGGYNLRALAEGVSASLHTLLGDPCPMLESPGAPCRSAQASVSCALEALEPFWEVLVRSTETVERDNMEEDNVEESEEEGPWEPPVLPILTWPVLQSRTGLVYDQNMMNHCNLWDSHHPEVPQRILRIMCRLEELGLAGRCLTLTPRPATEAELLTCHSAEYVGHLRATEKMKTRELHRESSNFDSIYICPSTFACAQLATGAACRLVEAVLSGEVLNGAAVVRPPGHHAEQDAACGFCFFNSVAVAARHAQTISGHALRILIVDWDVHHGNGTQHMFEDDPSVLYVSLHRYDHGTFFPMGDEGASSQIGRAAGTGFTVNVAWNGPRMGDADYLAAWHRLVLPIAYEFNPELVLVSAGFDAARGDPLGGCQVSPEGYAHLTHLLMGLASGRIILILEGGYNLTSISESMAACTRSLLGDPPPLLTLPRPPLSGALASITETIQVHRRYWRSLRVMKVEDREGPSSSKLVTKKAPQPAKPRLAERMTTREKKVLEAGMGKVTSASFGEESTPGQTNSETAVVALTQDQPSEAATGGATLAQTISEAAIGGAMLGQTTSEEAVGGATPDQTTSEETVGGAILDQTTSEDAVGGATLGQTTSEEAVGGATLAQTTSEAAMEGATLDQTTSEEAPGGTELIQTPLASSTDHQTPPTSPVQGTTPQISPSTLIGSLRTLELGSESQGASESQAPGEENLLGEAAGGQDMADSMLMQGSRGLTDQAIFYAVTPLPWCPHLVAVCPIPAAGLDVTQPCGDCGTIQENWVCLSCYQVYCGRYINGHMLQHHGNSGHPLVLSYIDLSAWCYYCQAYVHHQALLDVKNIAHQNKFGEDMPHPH
The assay can be described thus: Inhibition of human recombinant His6-tagged and GST-fuses HDAC6 expressed in insect High5 cells using Boc-Lys(eacetyl)- AMC as substrate after 3 hrs by fluorescence assay.

In another assay the target is Histone deacetylase 3 (Homo sapiens, UniProt O15379). Nature of the assay: Inhibition of human recombinant His6-tagged and GST-fuses HDAC3 expressed in insect High5 cells using Ac-Lys-Tyr-Lys(e-acetyl)-AMC as substrate after 24 hrs by fluorescence assay.
Sequence of Histone deacetylase 3 (O15379 whole entry): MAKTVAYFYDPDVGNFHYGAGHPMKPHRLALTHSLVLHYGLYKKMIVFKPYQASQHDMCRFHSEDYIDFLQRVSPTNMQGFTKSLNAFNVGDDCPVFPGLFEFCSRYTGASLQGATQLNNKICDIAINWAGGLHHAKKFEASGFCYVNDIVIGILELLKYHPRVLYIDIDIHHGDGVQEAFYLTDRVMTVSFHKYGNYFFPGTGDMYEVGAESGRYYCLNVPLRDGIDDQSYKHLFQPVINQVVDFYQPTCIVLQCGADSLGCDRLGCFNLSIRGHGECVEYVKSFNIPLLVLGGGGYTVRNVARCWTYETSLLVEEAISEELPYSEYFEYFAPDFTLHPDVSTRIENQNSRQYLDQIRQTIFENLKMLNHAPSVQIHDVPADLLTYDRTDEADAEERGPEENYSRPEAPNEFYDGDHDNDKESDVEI
For a further assay, the target named is Histone deacetylase 1 (Homo sapiens, UniProt Q13547). The assay can be described thus: Inhibition of human recombinant His6-tagged and GST-fuses HDAC1 expressed in insect High5 cells using Ac-Lys-Tyr-Lys(e-acetyl)-AMC as substrate after 24 hrs by fluorescence assay.
Sequence of Histone deacetylase 1 (Q13547 whole entry): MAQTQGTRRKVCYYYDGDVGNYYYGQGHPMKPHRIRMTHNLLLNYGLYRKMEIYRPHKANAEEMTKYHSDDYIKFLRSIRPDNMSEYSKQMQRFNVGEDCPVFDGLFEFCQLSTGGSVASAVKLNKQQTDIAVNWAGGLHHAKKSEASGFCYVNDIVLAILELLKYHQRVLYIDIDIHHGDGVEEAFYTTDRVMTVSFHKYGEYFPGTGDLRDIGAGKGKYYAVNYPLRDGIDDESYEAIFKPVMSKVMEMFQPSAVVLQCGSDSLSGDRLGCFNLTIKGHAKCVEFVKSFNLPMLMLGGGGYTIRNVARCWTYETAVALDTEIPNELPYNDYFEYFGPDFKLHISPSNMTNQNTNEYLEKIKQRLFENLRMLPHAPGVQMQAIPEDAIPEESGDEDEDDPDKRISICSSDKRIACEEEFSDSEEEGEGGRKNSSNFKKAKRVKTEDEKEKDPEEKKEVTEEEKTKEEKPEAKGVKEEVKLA

`C=CCCC(=O)Nc1ccc(C(=O)N2CCc3nc(C(=O)NO)sc3C2)cc1`: the IC50 in assay [1] turned out to be 0.39 µM; at Histone deacetylase 3, 9.38 µM; on Histone deacetylase 1, 9.7 µM.
Take `COc1ccc(/C=C/C(=O)Nc2ccc(C(=O)N3CCc4nc(C(=O)NO)sc4C3)cc2)cc1`: the IC50 was 0.45 µM in assay [1], 16.1 µM at Histone deacetylase 3 and 22.5 µM at Histone deacetylase 1.
Take `O=C(Nc1ccc(C(=O)N2CCc3nc(C(=O)NO)sc3C2)cc1)c1ccc(-c2ccccc2)s1`: the IC50 in assay [1] stood at 0.12 µM; at Histone deacetylase 3, 2.66 µM; at Histone deacetylase 1 it was 2.59 µM.
Consider `C=CCCC(=O)NCCCN1CCc2nc(C(=O)NO)sc2C1`, for which, in assay [1], the concentration for half-maximal inhibition (IC50) was determined as 58.7 µM.
In the case of `O=C(/C=C/c1ccccc1)NCCCN1CCc2nc(C(=O)NO)sc2C1`, the IC50 turned out to be 13.5 µM in assay [1], 13.5 µM on Histone deacetylase 3 and 39.4 µM on Histone deacetylase 1.
Turning to `COc1ccc(/C=C/C(=O)NCCCN2CCc3nc(C(=O)NO)sc3C2)cc1`, the IC50 in assay [1] worked out at 8.77 µM; at Histone deacetylase 3, 6.62 µM; on Histone deacetylase 1, 10.3 µM.
The like results for `O=C(NCCCN1CCc2nc(C(=O)NO)sc2C1)c1ccc(-c2ccccc2)s1` were, in that order, 3.39 µM, 5.09 µM and 5.67 µM.
For the molecule `C=CCCC(=O)NCCCCN1CCc2nc(C(=O)NO)sc2C1`, the IC50 in assay [1] was determined as 24.7 µM.
Turning to `O=C(/C=C/c1ccccc1)NCCCCN1CCc2nc(C(=O)NO)sc2C1`, the figures for the IC50 (in assay [1]; at Histone deacetylase 3; at Histone deacetylase 1) were 23.2 µM, 26.4 µM and 40.1 µM, respectively.
For the molecule `COc1ccc(/C=C/C(=O)NCCCCN2CCc3nc(C(=O)NO)sc3C2)cc1`, the half-inhibitory concentration (IC50) in assay [1] was determined as 9.55 µM; on Histone deacetylase 3, 34.1 µM; on Histone deacetylase 1, 35.1 µM.
In the case of `O=C(NCCCCN1CCc2nc(C(=O)NO)sc2C1)c1ccc(-c2ccccc2)s1`, the 50% inhibitory concentration (IC50) worked out at 2.69 µM in assay [1], 4.89 µM at Histone deacetylase 3 and 6.08 µM at Histone deacetylase 1.
Consider `C=CCCC(=O)Nc1ccc(C(C)N2CCc3nc(C(=O)NO)sc3C2)cn1` (centres undefined), for which the IC50 stood at 13.5 µM in assay [1], 19.2 µM on Histone deacetylase 3 and 65.7 µM at Histone deacetylase 1.
The like results for `CC(c1ccc(NC(=O)/C=C/c2ccccc2)nc1)N1CCc2nc(C(=O)NO)sc2C1` (centres undefined) were, in that order, 1.07 µM, 4.8 µM and 6.8 µM.
`COc1ccc(/C=C/C(=O)Nc2ccc(C(C)N3CCc4nc(C(=O)NO)sc4C3)cn2)cc1` (centres undefined): the 50% inhibitory concentration (IC50) in assay [1] amounted to 1.55 µM; at Histone deacetylase 3 it was 5.7 µM; on Histone deacetylase 1 it was 6.8 µM.
Consider `CC(c1ccc(NC(=O)c2ccc(-c3ccccc3)s2)nc1)N1CCc2nc(C(=O)NO)sc2C1` (centres undefined), for which the values for the IC50 (in assay [1]; on Histone deacetylase 3; on Histone deacetylase 1) were 1.33 µM, 1.94 µM and 2.96 µM, respectively.
As to `CC(C)N(C(=O)/C=C/c1ccccc1)c1cccc(CN2CCc3nc(C(=O)NO)sc3C2)c1`, the figures for the 50% inhibitory concentration (IC50) (in assay [1]; at Histone deacetylase 3; on Histone deacetylase 1) were 1.22 µM, 2.19 µM and 11.5 µM, respectively.
